For orientation: Ki means a dissociation constant, usually derived from enzyme kinetics or from competition with a known ligand. Lower therefore signals a stronger hold on the target.

Some targets named below: Carbonic anhydrase 1 (Homo sapiens, UniProt P00915); Carbonic anhydrase 2 (Homo sapiens, UniProt P00918); Carbonic anhydrase 12 (Homo sapiens, UniProt O43570); Carbonic anhydrase 9 (Homo sapiens, UniProt Q16790).
Series [1] is described as follows: Permeability by PAMPA. In kind it is ADME. The conditions noted are these: read-out: permeability.

Chain of Carbonic anhydrase 12 (O43570 whole entry): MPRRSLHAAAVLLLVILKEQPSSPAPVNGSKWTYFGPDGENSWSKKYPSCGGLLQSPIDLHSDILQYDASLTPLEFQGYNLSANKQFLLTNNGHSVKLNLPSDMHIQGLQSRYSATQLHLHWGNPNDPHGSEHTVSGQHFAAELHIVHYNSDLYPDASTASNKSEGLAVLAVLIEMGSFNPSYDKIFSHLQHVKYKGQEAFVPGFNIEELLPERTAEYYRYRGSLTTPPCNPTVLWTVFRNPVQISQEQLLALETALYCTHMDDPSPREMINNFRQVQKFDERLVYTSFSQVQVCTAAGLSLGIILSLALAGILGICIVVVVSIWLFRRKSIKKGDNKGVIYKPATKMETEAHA
Chain of Carbonic anhydrase 1 (P00915 whole entry): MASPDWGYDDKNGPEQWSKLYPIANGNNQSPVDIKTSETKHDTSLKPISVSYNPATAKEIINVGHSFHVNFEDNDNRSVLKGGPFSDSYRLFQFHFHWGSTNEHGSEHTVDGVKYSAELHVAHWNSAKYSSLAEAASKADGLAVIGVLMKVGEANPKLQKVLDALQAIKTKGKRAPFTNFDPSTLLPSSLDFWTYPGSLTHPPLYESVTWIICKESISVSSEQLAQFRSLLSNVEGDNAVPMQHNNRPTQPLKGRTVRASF

`CC(=O)OC[C@H]1O[C@@H](S(=O)(=O)NCc2ccc(S(N)(=O)=O)cc2)[C@H](OC(C)=O)[C@@H](OC(C)=O)[C@@H]1O[C@H]1O[C@H](COC(C)=O)[C@@H](OC(C)=O)[C@H](OC(C)=O)[C@H]1OC(C)=O`: the values for the Ki on Carbonic anhydrase 1, at Carbonic anhydrase 2 and at Carbonic anhydrase 12 were 2.04 µM, 0.0625 µM and 0.0091 µM, respectively.
`COC(=O)[C@H]1O[C@@H](SNCCc2ccc(S(N)(=O)=O)cc2)[C@H](OC(C)=O)[C@@H](OC(C)=O)[C@H]1OC(C)=O`: the inhibitory constant (Ki) at Carbonic anhydrase 1 worked out at 0.11 µM; on Carbonic anhydrase 2, 0.0162 µM; at Carbonic anhydrase 12, 0.0095 µM.
For the molecule `NS(=O)(=O)c1ccc(CNS(=O)(=O)[C@@H]2O[C@H](CO)[C@@H](O[C@H]3O[C@H](CO)[C@@H](O)[C@H](O)[C@H]3O)[C@H](O)[C@H]2O)cc1`, the Ki on Carbonic anhydrase 1 worked out at 0.101 µM; at Carbonic anhydrase 2, 0.0048 µM; at Carbonic anhydrase 9, 0.098 µM; on Carbonic anhydrase 12 it was 0.0082 µM.
Turning to `CC(=O)OC[C@H]1O[C@@H](SNCc2ccc(S(N)(=O)=O)cc2)[C@H](OC(C)=O)[C@@H](OC(C)=O)[C@@H]1O[C@H]1O[C@H](COC(C)=O)[C@@H](OC(C)=O)[C@H](OC(C)=O)[C@H]1OC(C)=O`, the Ki on Carbonic anhydrase 1 came out at 3.46 µM; on Carbonic anhydrase 2, 0.0131 µM; at Carbonic anhydrase 12, 0.0085 µM.
Take `CC(=O)OC[C@H]1O[C@@H](SNCCc2ccc(S(N)(=O)=O)cc2)[C@H](OC(C)=O)[C@@H](OC(C)=O)[C@@H]1OC(C)=O`: the Ki on Carbonic anhydrase 1 was 3.89 µM; on Carbonic anhydrase 2, 0.0145 µM; on Carbonic anhydrase 9 it was 0.097 µM; on Carbonic anhydrase 12, 0.0136 µM.
In the case of `NS(=O)(=O)c1ccc(CCNS(=O)(=O)[C@@H]2O[C@H](CO)[C@@H](O[C@H]3O[C@H](CO)[C@@H](O)[C@H](O)[C@H]3O)[C@H](O)[C@H]2O)cc1`, the Ki on Carbonic anhydrase 1 came to 0.102 µM; on Carbonic anhydrase 2, 0.0052 µM; at Carbonic anhydrase 9, 0.081 µM; on Carbonic anhydrase 12 it was 0.0073 µM.
For `NS(=O)(=O)c1ccc(CNS(=O)(=O)[C@@H]2O[C@H](CO)[C@@H](O[C@@H]3O[C@H](CO)[C@H](O)[C@H](O)[C@H]3O)[C@H](O)[C@H]2O)cc1`, in that order: 0.107 µM, 0.005 µM, 0.106 µM and 0.0089 µM.
Turning to `CC(=O)OC[C@H]1O[C@@H](S(=O)(=O)NCc2ccc(S(N)(=O)=O)cc2)[C@H](OC(C)=O)[C@@H](OC(C)=O)[C@H]1OC(C)=O`, the figures for the Ki on Carbonic anhydrase 1, on Carbonic anhydrase 2 and on Carbonic anhydrase 12 were 0.11 µM, 0.0163 µM and 0.0099 µM, respectively.
On to `CC(=O)OC[C@H]1O[C@@H](O[C@H]2[C@H](OC(C)=O)[C@@H](OC(C)=O)[C@H](S(=O)(=O)NCCc3ccc(S(N)(=O)=O)cc3)O[C@@H]2COC(C)=O)[C@H](OC(C)=O)[C@@H](OC(C)=O)[C@H]1OC(C)=O`, for which the Ki stood at 3.46 µM on Carbonic anhydrase 1, 0.0562 µM at Carbonic anhydrase 2, 0.097 µM at Carbonic anhydrase 9 and 0.0095 µM at Carbonic anhydrase 12.
As for `CC(=O)OC[C@H]1O[C@@H](O[C@H]2[C@H](OC(C)=O)[C@@H](OC(C)=O)[C@H](SNCCc3ccc(S(N)(=O)=O)cc3)O[C@@H]2COC(C)=O)[C@H](OC(C)=O)[C@@H](OC(C)=O)[C@H]1OC(C)=O`, the Ki on Carbonic anhydrase 1 came out at 8.04 µM; on Carbonic anhydrase 2 it was 0.012 µM; at Carbonic anhydrase 9, 0.097 µM; on Carbonic anhydrase 12, 0.0087 µM.
For `CC(=O)OC[C@H]1O[C@@H](SNCc2ccc(S(N)(=O)=O)cc2)[C@H](OC(C)=O)[C@@H](OC(C)=O)[C@H]1OC(C)=O`, the inhibition constant Ki came to 0.12 µM on Carbonic anhydrase 1, 0.0134 µM on Carbonic anhydrase 2 and 0.0155 µM at Carbonic anhydrase 12.
For the molecule `COC(=O)[C@H]1O[C@@H](SNCc2ccc(S(N)(=O)=O)cc2)[C@H](OC(C)=O)[C@@H](OC(C)=O)[C@H]1OC(C)=O`, the Ki was determined as 0.11 µM on Carbonic anhydrase 1, 0.0181 µM at Carbonic anhydrase 2, 0.102 µM at Carbonic anhydrase 9 and 0.0156 µM at Carbonic anhydrase 12.
On to `NS(=O)(=O)c1ccc(CNS(=O)(=O)[C@@H]2O[C@H](CO)[C@@H](O)[C@H](O)[C@H]2O)cc1`, for which the Papp in series [1] was below 0.5 nm/s. In addition, the Ki turned out to be 0.102 µM at Carbonic anhydrase 1, 0.0091 µM on Carbonic anhydrase 2 and 0.0083 µM on Carbonic anhydrase 12.
Turning to `CC(=O)Nc1nnc(S(N)(=O)=O)s1` [ACETAZOLAMIDE], the Papp in series [1] was below 1.5 nm/s.
`CC(=O)OC[C@H]1O[C@@H](S(=O)(=O)NCc2ccc(S(N)(=O)=O)cc2)[C@H](OC(C)=O)[C@@H](OC(C)=O)[C@@H]1OC(C)=O`: the Papp in series [1] is below 0.5 nm/s. Moreover, the Ki at Carbonic anhydrase 1 amounted to 0.12 µM; on Carbonic anhydrase 2, 0.0148 µM; on Carbonic anhydrase 12 it was 0.0093 µM.
In the case of `NS(=O)(=O)c1ccc(CCNS(=O)(=O)[C@@H]2O[C@H](CO)[C@@H](O[C@@H]3O[C@H](CO)[C@H](O)[C@H](O)[C@H]3O)[C@H](O)[C@H]2O)cc1`, the Ki on Carbonic anhydrase 1 amounted to 0.078 µM; on Carbonic anhydrase 2 it was 0.0046 µM; on Carbonic anhydrase 9 it was 0.1 µM; at Carbonic anhydrase 12, 0.0091 µM.
On to `COC(=O)[C@H]1O[C@@H](S(=O)(=O)NCc2ccc(S(N)(=O)=O)cc2)[C@H](OC(C)=O)[C@@H](OC(C)=O)[C@H]1OC(C)=O`, for which the Ki is 2.4 µM at Carbonic anhydrase 1, 0.0658 µM on Carbonic anhydrase 2 and 0.0098 µM at Carbonic anhydrase 12.
For `CC(=O)OC[C@H]1O[C@@H](O[C@H]2[C@H](OC(C)=O)[C@@H](OC(C)=O)[C@H](S(=O)(=O)NCc3ccc(S(N)(=O)=O)cc3)O[C@@H]2COC(C)=O)[C@H](OC(C)=O)[C@@H](OC(C)=O)[C@H]1OC(C)=O`, in that order: 4.93 µM, 0.0588 µM and 0.0104 µM.
As to `NS(=O)(=O)c1ccc(CCNS(=O)(=O)[C@@H]2O[C@H](C(=O)O)[C@H](O)[C@H](O)[C@H]2O)cc1`, the inhibition constant (Ki) at Carbonic anhydrase 1 is 0.097 µM; at Carbonic anhydrase 2, 0.0047 µM; at Carbonic anhydrase 9 it was 0.096 µM; at Carbonic anhydrase 12 it was 0.0095 µM.
For `CC(=O)OC[C@H]1O[C@@H](O[C@H]2[C@H](OC(C)=O)[C@@H](OC(C)=O)[C@H](SNCc3ccc(S(N)(=O)=O)cc3)O[C@@H]2COC(C)=O)[C@H](OC(C)=O)[C@@H](OC(C)=O)[C@H]1OC(C)=O`, the Ki was 6.83 µM on Carbonic anhydrase 1, 0.0155 µM on Carbonic anhydrase 2 and 0.0098 µM at Carbonic anhydrase 12.
With `NS(=O)(=O)c1ccc(CCNS(=O)(=O)[C@@H]2O[C@H](CO)[C@@H](O)[C@H](O)[C@H]2O)cc1`, the Ki on Carbonic anhydrase 1 was 0.088 µM; at Carbonic anhydrase 2, 0.0078 µM; on Carbonic anhydrase 9, 0.084 µM; on Carbonic anhydrase 12 it was 0.0076 µM.
As for `CC(=O)OC[C@H]1O[C@@H](S(=O)(=O)NCCc2ccc(S(N)(=O)=O)cc2)[C@H](OC(C)=O)[C@@H](OC(C)=O)[C@@H]1O[C@H]1O[C@H](COC(C)=O)[C@@H](OC(C)=O)[C@H](OC(C)=O)[C@H]1OC(C)=O`, the Ki on Carbonic anhydrase 1 turned out to be 5.57 µM; at Carbonic anhydrase 2, 0.0152 µM; on Carbonic anhydrase 9, 0.093 µM; on Carbonic anhydrase 12, 0.0088 µM.
In the case of `CC(=O)OC[C@H]1O[C@@H](S(=O)(=O)NCCc2ccc(S(N)(=O)=O)cc2)[C@H](OC(C)=O)[C@@H](OC(C)=O)[C@@H]1OC(C)=O`, the Ki on Carbonic anhydrase 1 stood at 0.09 µM; at Carbonic anhydrase 2, 0.0154 µM; on Carbonic anhydrase 12 it was 0.0095 µM.
Regarding `CC(=O)OC[C@H]1O[C@@H](S(=O)(=O)NCCc2ccc(S(N)(=O)=O)cc2)[C@H](OC(C)=O)[C@@H](OC(C)=O)[C@H]1OC(C)=O`, the Ki turned out to be 4.71 µM on Carbonic anhydrase 1, 0.0738 µM on Carbonic anhydrase 2 and 0.0094 µM at Carbonic anhydrase 12.
As to `NS(=O)(=O)c1ccc(CNS(=O)(=O)[C@@H]2O[C@H](C(=O)O)[C@H](O)[C@H](O)[C@H]2O)cc1`, the inhibition constant (Ki) was determined as 0.081 µM on Carbonic anhydrase 1, 0.0071 µM on Carbonic anhydrase 2, 0.097 µM on Carbonic anhydrase 9 and 0.0089 µM at Carbonic anhydrase 12.
As for `NS(=O)(=O)c1ccc(CNS(=O)(=O)[C@@H]2O[C@H](CO)[C@H](O)[C@H](O)[C@H]2O)cc1`, the Ki stood at 0.087 µM at Carbonic anhydrase 1, 0.0078 µM on Carbonic anhydrase 2 and 0.0087 µM at Carbonic anhydrase 12.
For the molecule `COC(=O)[C@H]1O[C@@H](S(=O)(=O)NCCc2ccc(S(N)(=O)=O)cc2)[C@H](OC(C)=O)[C@@H](OC(C)=O)[C@H]1OC(C)=O`, the Ki at Carbonic anhydrase 1 was 3.21 µM; at Carbonic anhydrase 2, 0.0627 µM; at Carbonic anhydrase 9 it was 0.095 µM; on Carbonic anhydrase 12, 0.0097 µM.
For `CC(=O)OC[C@H]1O[C@@H](SNCc2ccc(S(N)(=O)=O)cc2)[C@H](OC(C)=O)[C@@H](OC(C)=O)[C@@H]1OC(C)=O`, the inhibition constant (Ki) at Carbonic anhydrase 1 was 4.16 µM; at Carbonic anhydrase 2, 0.0148 µM; at Carbonic anhydrase 12, 0.0115 µM.
In the case of `CC(=O)OC[C@H]1O[C@@H](SNCCc2ccc(S(N)(=O)=O)cc2)[C@H](OC(C)=O)[C@@H](OC(C)=O)[C@@H]1O[C@H]1O[C@H](COC(C)=O)[C@@H](OC(C)=O)[C@H](OC(C)=O)[C@H]1OC(C)=O`, the Ki on Carbonic anhydrase 1 was 6.75 µM; at Carbonic anhydrase 2, 0.0151 µM; on Carbonic anhydrase 9, 0.094 µM; at Carbonic anhydrase 12, 0.0088 µM.
For `CC(=O)OC[C@H]1O[C@@H](SNCCc2ccc(S(N)(=O)=O)cc2)[C@H](OC(C)=O)[C@@H](OC(C)=O)[C@H]1OC(C)=O`, the Ki on Carbonic anhydrase 1 stood at 4.1 µM; on Carbonic anhydrase 2, 0.0133 µM; on Carbonic anhydrase 9, 0.107 µM; at Carbonic anhydrase 12, 0.0167 µM.
Consider `NS(=O)(=O)c1ccc(CCNS(=O)(=O)[C@@H]2O[C@H](CO)[C@H](O)[C@H](O)[C@H]2O)cc1`, for which the Ki worked out at 0.082 µM at Carbonic anhydrase 1, 0.0076 µM at Carbonic anhydrase 2, 0.1 µM on Carbonic anhydrase 9 and 0.0078 µM at Carbonic anhydrase 12.

(Values after ChEMBL document CHEMBL1156297, “Sulfonamide linked neoglycoconjugates--a new class of inhibitors for cancer-associated carbonic anhydrases” (J Med Chem, 2010).)
